How the values were obtained:
[1] = The drug is tested on Bacteroides cellulosilyticus strain: DSM14838 for biotransformation. The drug concentrations were measured before and after a 12-h incubation by liquid-chromatography-coupled mass spectrometry (LC–MS); conditions: 2 µM
[2] = The drug is tested on Bacteroides fragilis strain: HMW610 for biotransformation. The drug concentrations were measured before and after a 12-h incubation by liquid-chromatography-coupled mass spectrometry (LC–MS); conditions: 2 µM
[3] = The drug is tested on Bacteroides fragilis strain: HMW615 for biotransformation. The drug concentrations were measured before and after a 12-h incubation by liquid-chromatography-coupled mass spectrometry (LC–MS); conditions: 2 µM
[4] = The drug is tested on Anaerococcus hydrogenalis strain: DSM7454 for biotransformation. The drug concentrations were measured before and after a 12-h incubation by liquid-chromatography-coupled mass spectrometry (LC–MS); conditions: 2 µM
[5] = The drug is tested on Blautia luti strain: DSM14534 for biotransformation. The drug concentrations were measured before and after a 12-h incubation by liquid-chromatography-coupled mass spectrometry (LC–MS); format: ADME; set-up: dose 2 uM, timepoint 0 vs 12 hours; conditions: 2 µM
[6] = The drug is tested on Clostridium sp. strain: fecal isolate for biotransformation. The drug concentrations were measured before and after a 12-h incubation by liquid-chromatography-coupled mass spectrometry (LC–MS); conditions: 2 µM
[7] = The drug is tested on Clostridium scindens strain: ATCC35704 for biotransformation. The drug concentrations were measured before and after a 12-h incubation by liquid-chromatography-coupled mass spectrometry (LC–MS); conditions: 2 µM
[8] = The drug is tested on Ruminococcus lactaris strain: ATCC29176 for biotransformation. The drug concentrations were measured before and after a 12-h incubation by liquid-chromatography-coupled mass spectrometry (LC–MS); conditions: 2 µM
[9] = bacteroides eggerthii, 12 h, 2 µM
Description: The drug is tested on Bacteroides eggerthii strain: DSM20697 for biotransformation. The drug concentrations were measured before and after a 12-h incubation by liquid-chromatography-coupled mass spectrometry (LC–MS)

[10] = bacteroides fragilis, 12 h, 2 µM
Description: The drug is tested on Bacteroides fragilis strain: DS-208 for biotransformation. The drug concentrations were measured before and after a 12-h incubation by liquid-chromatography-coupled mass spectrometry (LC–MS)

[11] = bacteroides stercoris, 12 h, 2 µM
Description: The drug is tested on Bacteroides stercoris strain: ATCC43183 for biotransformation. The drug concentrations were measured before and after a 12-h incubation by liquid-chromatography-coupled mass spectrometry (LC–MS)

[12] = bacteroides thetaiotaomicron, 12 h, 2 µM
Description: The drug is tested on Bacteroides thetaiotaomicron strain: VPI-5482 for biotransformation. The drug concentrations were measured before and after a 12-h incubation by liquid-chromatography-coupled mass spectrometry (LC–MS)

[13] = parabacteroides distasonis, 12 h, 2 µM
Description: The drug is tested on Parabacteroides distasonis strain: ATCC8503 for biotransformation. The drug concentrations were measured before and after a 12-h incubation by liquid-chromatography-coupled mass spectrometry (LC–MS)

[14] = parabacteroides johnsonii, 12 h, 2 µM
Description: The drug is tested on Parabacteroides johnsonii strain: DSM18315 for biotransformation. The drug concentrations were measured before and after a 12-h incubation by liquid-chromatography-coupled mass spectrometry (LC–MS)

[15] = anaerostipes sp., 12 h, 2 µM
Description: The drug is tested on Anaerostipes sp. strain: fecal isolate for biotransformation. The drug concentrations were measured before and after a 12-h incubation by liquid-chromatography-coupled mass spectrometry (LC–MS)

[16] = roseburia intestinalis, 12 h, 2 µM
Description: The drug is tested on Roseburia intestinalis strain: L1-82 for biotransformation. The drug concentrations were measured before and after a 12-h incubation by liquid-chromatography-coupled mass spectrometry (LC–MS)

[17] = akkermansia muciniphila, 12 h, 2 µM
Description: The drug is tested on Akkermansia muciniphila strain: ATCC BAA-835 for biotransformation. The drug concentrations were measured before and after a 12-h incubation by liquid-chromatography-coupled mass spectrometry (LC–MS)

[18] = The drug is tested on Bacteroides vulgatus strain: ATCC8482 for biotransformation. The drug concentrations were measured before and after a 12-h incubation by liquid-chromatography-coupled mass spectrometry (LC–MS); conditions: phocaeicola vulgatus, 2 µM
[19] = The drug is tested on Providencia rettgeri strain: DSM1131 for biotransformation. The drug concentrations were measured before and after a 12-h incubation by liquid-chromatography-coupled mass spectrometry (LC–MS); format: ADME; set-up: dose 2 uM, timepoint 0 vs 12 hours; conditions: 2 µM
[20] = The drug is tested on Subdoligranulum variabile strain: DSM15176 for biotransformation. The drug concentrations were measured before and after a 12-h incubation by liquid-chromatography-coupled mass spectrometry (LC–MS); conditions: 2 µM

Row | SMILES | Bacterial Biotransformation [1] | Bacterial Biotransformation [2] | Bacterial Biotransformation [3] | Bacterial Biotransformation [4] | Bacterial Biotransformation [5] | Bacterial Biotransformation [6] | Bacterial Biotransformation [7] | Bacterial Biotransformation [8] | Bacterial Biotransformation [9] | Bacterial Biotransformation [10] | Bacterial Biotransformation [11] | Bacterial Biotransformation [12] | Bacterial Biotransformation [13] | Bacterial Biotransformation [14] | Bacterial Biotransformation [15] | Bacterial Biotransformation [16] | Bacterial Biotransformation [17] | Bacterial Biotransformation [18] | Bacterial Biotransformation [19] | Bacterial Biotransformation [20]
1 | CC(O)(CS(=O)(=O)c1ccc(F)cc1)C(=O)Nc1ccc(C#N)c(C(F)(F)F)c1 (centres undefined) [BICALUTAMIDE] | Compound NOT metabolized | Compound metabolized | Compound metabolized | Compound NOT metabolized | Compound NOT metabolized | Compound NOT metabolized | Compound NOT metabolized | Compound NOT metabolized | Compound NOT metabolized | Compound NOT metabolized | Compound NOT metabolized | Compound NOT metabolized | Compound metabolized | Compound NOT metabolized | Compound NOT metabolized | Compound NOT metabolized | Compound NOT metabolized |  |  | 
2 | CCOc1ccc(NC(C)=O)cc1 [PHENACETIN] | Compound NOT metabolized | Compound NOT metabolized | Compound NOT metabolized | Compound NOT metabolized | Compound NOT metabolized | Compound NOT metabolized | Compound NOT metabolized | Compound NOT metabolized | Compound NOT metabolized | Compound NOT metabolized | Compound NOT metabolized | Compound NOT metabolized | Compound NOT metabolized | Compound NOT metabolized | Compound NOT metabolized | Compound NOT metabolized | Compound NOT metabolized | Compound NOT metabolized | Compound NOT metabolized | 
3 | COc1cc2nc(N3CCN(C(=O)c4ccco4)CC3)nc(N)c2cc1OC [PRAZOSIN] | Compound NOT metabolized | Compound NOT metabolized | Compound NOT metabolized | Compound NOT metabolized | Compound NOT metabolized |  |  | Compound NOT metabolized | Compound NOT metabolized | Compound NOT metabolized | Compound NOT metabolized | Compound NOT metabolized | Compound NOT metabolized | Compound NOT metabolized | Compound NOT metabolized | Compound NOT metabolized | Compound NOT metabolized |  | Compound NOT metabolized | 
4 | CC(N)C12CC3CC(CC(C3)C1)C2 (centres undefined) [RIMANTADINE] | Compound NOT metabolized | Compound NOT metabolized | Compound NOT metabolized | Compound NOT metabolized | Compound NOT metabolized | Compound NOT metabolized | Compound NOT metabolized | Compound NOT metabolized | Compound NOT metabolized | Compound NOT metabolized | Compound NOT metabolized | Compound NOT metabolized | Compound NOT metabolized | Compound NOT metabolized | Compound NOT metabolized | Compound NOT metabolized |  |  | Compound NOT metabolized | 
5 | CC(C)c1nc(N(C)S(C)(=O)=O)nc(-c2ccc(F)cc2)c1/C=C/[C@@H](O)C[C@@H](O)CC(=O)[O-].CC(C)c1nc(N(C)S(C)(=O)=O)nc(-c2ccc(F)cc2)c1/C=C/[C@@H](O)C[C@@H](O)CC(=O)[O-].[Ca+2] [ROSUVASTATIN CALCIUM] | Compound NOT metabolized |  | Compound NOT metabolized | Compound NOT metabolized | Compound NOT metabolized | Compound NOT metabolized | Compound NOT metabolized | Compound NOT metabolized | Compound NOT metabolized | Compound NOT metabolized | Compound NOT metabolized |  | Compound NOT metabolized |  | Compound NOT metabolized | Compound NOT metabolized |  | Compound NOT metabolized | Compound NOT metabolized | 
6 | CN[C@H]1CC[C@@H](c2ccc(Cl)c(Cl)c2)c2ccccc21 [SERTRALINE] |  | Compound NOT metabolized |  | Compound NOT metabolized | Compound NOT metabolized |  | Compound NOT metabolized | Compound NOT metabolized | Compound NOT metabolized | Compound NOT metabolized | Compound NOT metabolized | Compound NOT metabolized | Compound NOT metabolized | Compound NOT metabolized | Compound NOT metabolized |  |  | Compound NOT metabolized | Compound NOT metabolized | Compound NOT metabolized
7 | CC(C)NCC(O)c1ccc(NS(C)(=O)=O)cc1 (centres undefined) [SOTALOL] | Compound NOT metabolized | Compound metabolized | Compound metabolized | Compound NOT metabolized | Compound NOT metabolized |  | Compound NOT metabolized | Compound NOT metabolized | Compound NOT metabolized | Compound metabolized | Compound NOT metabolized | Compound metabolized | Compound NOT metabolized | Compound NOT metabolized | Compound NOT metabolized | Compound NOT metabolized | Compound NOT metabolized | Compound NOT metabolized | Compound NOT metabolized | 
8 | Cc1ccc(S(=O)(=O)NC(=O)NN2CCCCCC2)cc1 [TOLAZAMIDE] | Compound metabolized | Compound metabolized | Compound metabolized | Compound NOT metabolized | Compound NOT metabolized | Compound metabolized | Compound NOT metabolized | Compound NOT metabolized | Compound metabolized | Compound metabolized | Compound metabolized | Compound metabolized | Compound metabolized | Compound metabolized | Compound NOT metabolized | Compound NOT metabolized |  | Compound metabolized | Compound NOT metabolized | 
9 | CCOC(=O)C1=C[C@]2(CC)CCCN3CCc4c(n1c1ccccc41)[C@@H]32 [VINPOCETINE] | Compound NOT metabolized |  | Compound NOT metabolized | Compound NOT metabolized | Compound NOT metabolized | Compound metabolized | Compound NOT metabolized | Compound NOT metabolized | Compound NOT metabolized | Compound NOT metabolized | Compound NOT metabolized | Compound NOT metabolized |  |  | Compound NOT metabolized |  |  | Compound NOT metabolized | Compound NOT metabolized | 

Source: ChEMBL document CHEMBL5303573, “Mapping human microbiome drug metabolism by gut bacteria and their genes” (Nature, 2019)
